This is an account of results in US20230233585A1, “USE OF […] OR OF ITS SALT FOR THE TREATMENT OF OSTEOARTHROSIS” (ABIOGEN PHARMA S.P.A., priority 2014, published 2023).

Data set [1] relates to patients with acute painful knee osteoarthritis (OA). Put plainly: Adverse events during the infusion course. It is filed as in vivo. To be noted: one patient, after the first infusion. The method, then:
(§1) After enrolment, patients were randomized to receive placebo or sodium neridronate (Abiogen, Pisa, Italy) 100 mg/8 ml in vials with an identical appearance in a 1:1 ratio. Both sodium neridronate and placebo were diluted in 500 ml of saline isotonic solution and infused in the morning for over 2 hours. The treatment was administered every third day four times starting from day 1 (first infusion) and ending on day 10 (fourth infusion). Throughout the infusion course, serum calcium was assayed before each infusion. The values were adjusted for albumin value of 4.2 g/dL. After 60 days (57-66) from the first infusion, the last clinical assessment was performed. Two months after the end of the study, patients were interviewed by telephone about a possible relapse of pain and the possible resumption of analgesic drugs and/or NSAIDs.
Fifty-six patients completed the study. […] Eight patients in the placebo group were excluded for the resumption of analgesic or NSAIDs treatment during the study (7 patients) and one patient refused to return to be evaluated 50 days after the treatment. […]

For data set [2] the test system is unchanged. Kind of data set: Telephone interview on resumption of analgesic drugs and/or NSAIDs. The data set is classed as in vivo. The settings on record: two months after the last clinical evaluation; 4 patients out of 31. The method, then: as §1
Data set [3] concerns subchondral BMLs in patients with painful knee OA. Kind of data set: Knee MRI, WORMS score for bone marrow edema. The data set is classed as in vivo. The settings on record: mean ± SD. As for the experimental part: as §1
High resolution, three-dimensional MRI of the target knee was obtained for each patient before the start of the treatment (1-7 days) and at the end of the study (day 58-69). All MR images were evaluated by a skilled musculoskeletal radiologist who was blinded to the patient's treatment. All MR examinations were performed with a 1.5 T scanner (Magnetom Espree, Siemens) using a dedicated knee coil. Imaging was performed on sagittal, coronal and transverse planes, with a field of view (FOV) of 18 cm and a matrix of acquisition of 256×256. The MR protocol included: spin echo (SE) T1-weighted sequences (repetition time TR 580 ms, echo time TE 12 ms, number of signal averages 2, thickness 3.0 mm, intersection gap 0.5 mm) on sagittal, coronal and transverse planes; SE T2-weighted sequences (TR 4.000 ms, TE 30/100 ms, one signal acquired, thickness 3.0 mm, intersection gap 0.5 mm) on sagittal and transverse planes; PD-weighted sequence with fat/suppression (TR 2800 ms, TE 40 ms, one signal acquired, thickness 3.0 mm, intersection gap 0.5 mm) on coronal plane. Subchondral BMLs were identified as areas of increase signal intensity on fat-suppressed T2-weighted images. Scores were assigned using the Whole-Organ MRI score for knee OA (WORMS) for bone marrow edema. […] For each subregion, the extent of the lesion was assessed following the WORMS scale: 0=absence of edema; 1=less than 25%; 2=25-50%; 3=>50%.
(§2) Primary outcome of the study was the assessment and comparison of changes in pain intensity between the sodium neridronate group and the placebo group along the study. Pain in the affected knee was measured by VAS (0-100) at day 1 (T0), at the day of the last infusion (day 10; T1) and 50 days later (T2). […] As additional endpoint, changes in WORMS score before the treatment and at T2 have been measured.

Data set [4] concerns patients with acute painful knee osteoarthritis (OA). Put plainly: Pain in the affected knee by VAS (0-100), randomized double-blind placebo-controlled study. The data set is classed as in vivo. The settings on record: mean ± SD.
Text: (§3) The aim of this randomized, double-blind, placebo-controlled study was to assess the efficacy of intravenous neridronate in controlling pain in patients with acute painful knee osteoarthritis (OA).
(§4) From March 2013 to January 2014, 96 patients older than 50 years and with a recent onset of knee pain were screened. These patients came from the orthopedic and rheumatologic outpatients services and the emergency department of a tertiary care center devoted to bone and joint diseases. Sixty-eight patients were considered eligible to be recruited when they met the following inclusion criteria: 1) knee OA fulfilling the American College of Rheumatology diagnostic criteria; 2) a radiographic Kellgren-Lawrence grading score ≥2 in the tibiofemoral joint; 3) a continuous knee pain by at least 2 weeks with an onset no longer than three months; 4) a pain intensity greater than 30 mm on a Huskisson's visual analog scale ranging from 0 (no pain) to 100 mm (maximal pain); 5) a knee MR scan showing large (>1 cm according to international criteria) BMLs. […] At the time of recruitment, 58 patients out of 68 (85.3%) were taking or had taken drugs to control pain in the previous three months. The patients were asked not to take any analgesics or nonsteroidal anti-inflammatory drugs (NSAIDs) throughout the study period. All patients gave written consent. The study was approved by the Ethics Committee of the hospital where the study was carried out.
as §1
Primary outcome of the study was the assessment and comparison of changes in pain intensity between the sodium neridronate group and the placebo group along the study. Pain in the affected knee was measured by VAS (0-100) at day 1 (T0), at the day of the last infusion (day 10; T1) and 50 days later (T2). As secondary endpoints, the following clinical assessments were performed: the Western Ontario and MacMaster Universities Osteoarthritis Index (WOMAC) pain questionnaire; the McGill Pain Questionnaire and the 36-Item Short Form Health Survey (SF-36) questionnaire to assess the patient's functional status. All these instruments were administered at T0 and T2. As additional endpoint, changes in WORMS score before the treatment and at T2 have been measured.

Data set [5] shares this test system. Kind of data set: SF-36 questionnaire (functional status). The data set is classed as in vivo. The settings on record: mean ± SD.
Text: as §3, §4, §1, §2

The test system is the same in data set [6]. Put plainly: McGill Pain Questionnaire. It is filed as in vivo. The settings on record: mean ± SD.
Text: as §3
(§5) From March 2013 to January 2014, 96 patients older than 50 years and with a recent onset of knee pain were screened. These patients came from the orthopedic and rheumatologic outpatients services and the emergency department of a tertiary care center devoted to bone and joint diseases. […]
as §2

The test system is the same in data set [7]. Kind of data set: WOMAC pain questionnaire. It is filed as in vivo. The settings on record: mean ± SD.
Text: as §3, §5, §2

For data set [8], the system named is patients with osteoarthritis. To be noted: dosages 5, 15, 35 and 50 mg; cited from earlier work.
[9] abbreviates: 50 days after the end of treatment (T2), N = 31.

With `NCCCCCC(O)(P(=O)(O)O)P(=O)(O)O` [sodium neridronate], in data set [1], the “adverse event leading to withdrawal of consent” value is on record as “acute phase reaction”. The “patients who had resumed symptomatic therapy with analgesic drugs or NSAIDs” value in data set [2] is listed as 12.9%. Moreover, the WORMS score was determined as 3.7±4.2 in data set [3] (T2, MRI at the end of the study, N = 31); 3.7 in data set [3] (T2, MRI at the end of the study, N = 31, listed as Neridronate); 6.3±3.0 in data set [3] (baseline, MRI before the start of treatment, N = 34); 6.3 ± 3.0 in data set [3] (baseline, MRI before the start of treatment, N = 34, listed as Neridronate). Also, the VAS score is 9.4±10.8 in data set [4] (50 days after the end of treatment (T2), 100 mg i.v. x4, N = 31); 9.4 in data set [4] (50 days after the end of treatment (T2), 100 mg i.v. x4, N = 31, listed as Neridronate); 59.0±14.7 in data set [4] (baseline (day 1, T0), before treatment, N = 34); 59.0 ± 14.7 in data set [4] (baseline (day 1, T0), before treatment, N = 34, listed as Neridronate); 30.4±15.6 in data set [4] (day of the last infusion (day 10, T1), 100 mg i.v. on days 1, 4, 7, 10). The SF-36 mental component stood at 62.5 in data set [5] (setting [9]) and 56.1 ± 12.4 in data set [5] (baseline (T0), N = 34). Also, the SF-36 physical component in data set [5] (setting [9]) is 51.1; in data set [5] (baseline (T0), N = 34) it was 36.6 ± 10.2. Also, the McGill in data set [6] (setting [9]) worked out at 3.7; in data set [6] (baseline (T0), N = 34) it was 14.3 ± 7.6. The WOMAC in data set [7] (setting [9]) is 58; in data set [7] (baseline (T0), N = 34) it was 232 ± 79.
On to `O=P(O)(O)C(O)(Cc1cccnc1)P(=O)(O)O` [risedronate], for which the “efficacy of treatment in pain symptoms versus placebo” value in data set [8] was “it was not possible to find any difference”.
